Experimental findings from patent US8343990B2, “Substituted cyclopropyl compounds, compositions containing such compounds and methods of treatment” (Merck Sharp & Dohme Corp., priority 2008, dated 2013) are described below.

SMILES strings stand for the structures. Structures can show the parent of a compound that is named as a salt.

In this experiment the target is T1, GPR119 receptor (UniProt Q8TDV5, S309L, species not given).
T1 sequence (Q8TDV5 1-335 S309L): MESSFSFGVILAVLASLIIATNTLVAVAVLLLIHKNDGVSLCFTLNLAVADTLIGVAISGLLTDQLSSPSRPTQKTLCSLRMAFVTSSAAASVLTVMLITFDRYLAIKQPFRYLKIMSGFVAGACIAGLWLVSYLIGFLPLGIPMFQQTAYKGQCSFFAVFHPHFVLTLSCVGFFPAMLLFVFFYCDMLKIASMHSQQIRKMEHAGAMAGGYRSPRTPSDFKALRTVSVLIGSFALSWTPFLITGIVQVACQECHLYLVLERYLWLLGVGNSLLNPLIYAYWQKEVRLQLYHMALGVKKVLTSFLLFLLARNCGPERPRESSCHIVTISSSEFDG
Kind of experiment: GPR119 signaling, cyclic AMP (cAMP) homogenous time resolved fluorescence (HTRF) assay. In kind it is cell-based. The following applies: CHO cells with Gα15 and murine GPR119, or HEK293 Flp-In cells with human GPR119 S309L; table does not say which; read-out: Activity: inflection points, denoted as EC50 values (agonist activation of GPR119, cAMP). The source says: Measurement of GPR119 Signaling Using a Cyclic AMP (cAMP) Homogenous Time Resolved Fluorescence (HTRF) Assay
Chinese hamster ovary (CHO) cell lines stably transfected with the permissive guanine nucleotide binding protein alpha 15 (Gα15) and […] GPR119 were maintained in DMEM media containing FBS, penicillin-streptomycin, puromycin, and G418 (geneticin). Alternatively, human embryonic kidney (HEK)293 Flp-In cells (Invitrogen, Carlsbad, Calif.) were stably transfected with a human SNP variant (S309L) of GPR119 and maintained in DMEM media containing FBS, penicillin-streptomycin, and hygromycin. Agonist activation of the GPR119 receptor was measured in receptor transfected cells described above, treated with compounds of this invention, using a commercial homogenous time resolved fluorescence (HTRF) kit for measurement of cAMP (CisBio, Bedford, Mass.). The assay was performed in 96-well half-volume plates (murine) or 384-well plates (human) following the manufacturers instructions. Briefly, suspended cells were incubated with a dose titration of test compound at room temperature for 60 min, lysed, and incubated with HTRF reagents for an additional 60 min. The plate was read using an Envision multilabel reader (Perkin Elmer) adjusted to read time resolved fluorescence and the cAMP concentrations were extrapolated from a cAMP calibration curve. […] The concentration of test compound required to stimulate a half-maximal response (EC50), and efficacy as compared to an internal agonist control, was determined from a sigmoidal 4-parameter curve fit of the resulting plot of normalized activity versus compound concentration.
One may read the EC50 as the concentration giving half of the maximal effect. For the molecule `N#Cc1nccc(OCC[C@@H]2C[C@@H]2C2CCN(c3ncc(Cl)cn3)CC2)n1` (racemic) [Ex 38, Rac-cis-4-(2-{2-[1-(5-chloropyrimidin-2-yl)piperidin-4-yl]cyclopropyl}ethoxy)pyrimidine-2-carbonitrile], the EC50 lay in the range of 10 to 50 nM.

On to `Clc1cnc(N2CCC(C3CC3CCOc3cccc(-c4nnco4)c3)CC2)nc1` (racemic) [Ex 10, rac cis-5-chloro-2-[4-(2-{2-[3-(1,3,4-oxadiazol-2-yl)phenoxy]ethyl}cyclopropyl)piperidin-1-yl]pyrimidine], for which the EC50 was above 200 nM.

As to `CS(=O)(=O)c1cccc(OCCC2CC2C2CCN(c3ncc(Cl)cn3)CC2)c1` (racemic) [Ex 7, rac cis-5-chloro-2-[4-(2-{2-[3-(methylsulfonyl)phenoxy]ethyl}cyclopropyl)piperidin-1-yl]pyrimidine], the EC50 was below 10 nM.

Consider `Cc1nnn(-c2ccc(OCCC3CC3C3CCN(c4ncc(Cl)cn4)CC3)cc2)n1` (racemic) [Ex 31a, rac cis-5-chloro-2-[4-(2-{2-[4-(5-methyl-2H-tetrazol-2-yl)phenoxy]ethyl}cyclopropyl)piperidin-1-yl]pyrimidine], for which the EC50 is below 10 nM.

As to `Clc1cnc(N2CCC(C3CC3CCOc3ccc(-n4cnnn4)cc3)CC2)nc1` (racemic) [Ex 30, rac cis-5-chloro-2-[4-(2-{2-[4-(1H-tetrazol-1-yl)phenoxy]ethyl}cyclopropyl)piperidin-1-yl]pyrimidine], the EC50 was below 10 nM.

On to `Clc1cnc(N2CCC(C3CC3CCOc3ccc(-n4ccnn4)cn3)CC2)nc1` (single isomer, unassigned) [Ex 55a, Chiral cis-5-chloro-2-{4-[2-(2-{[5-(1H-1,2,3-triazol-1-yl)pyridin-2-yl]oxy}ethyl)cyclopropyl]piperidin-1-yl}pyrimidine], for which the EC50 was below 10 nM.

With `C[S+]([O-])c1ccc(OCCC2CC2C2CCN(c3ncc(Cl)cn3)CC2)cc1` (single isomer, unassigned) [Ex 33, Chiral-cis-5-chloro-2-[4-(2-{2-[4-(methylsulfinyl)phenoxy]ethyl}cyclopropyl)piperidin-1-yl]pyrimidine], the EC50 was below 10 nM.

For the molecule `Clc1cnc(N2CCC(C3CC3CCOc3ccc(-n4cncn4)cc3)CC2)nc1` (racemic) [Ex 25, rac cis-5-chloro-2-[4-(2-{2-[4-(1H-1,2,4-triazol-1-yl)phenoxy]ethyl}cyclopropyl)piperidin-1-yl]pyrimidine], the EC50 fell in the range of 10 to 50 nM.

For the molecule `Cc1nnc(-c2ccc(OCCC3CC3C3CCN(c4ncc(Cl)cn4)CC3)cc2)o1` (racemic) [Ex 16, rac cis-5-chloro-2-[4-(2-{2-[4-(5-methyl-1,3.4-oxadiazol-2-yl)phenoxy]ethyl}cyclopropyl)piperidin-1-yl]pyrimidine], the EC50 is below 10 nM.

For the molecule `Cc1nc(C#N)cc(OCC[C@@H]2C[C@@H]2C2CCN(c3ncc(Cl)cn3)CC2)n1` (racemic) [Ex 51, Rac-cis-6-(2-{2-[1-(5-chloropyrimidin-2-yl)piperidin-4-yl]cyclopropyl}ethoxy)-2-methylpyrimidine-4-carbonitrile], the EC50 is below 10 nM.

Consider `Clc1cnc(N2CCC(C3CC3CCOc3ccncc3)CC2)nc1` (racemic) [Ex 92, rac-trans-5-chloro-2-(4-{2-[2-(pyridin-4-yloxy)ethyl]cyclopropyl}piperidin-1-yl)pyrimidine], for which the EC50 was 50 to 200 nM.

For the molecule `Cc1nc(C#N)cc(OCC[C@@H]2C[C@@H]2C2CCN(c3ncc(F)cn3)CC2)n1` (racemic) [Ex 53, Rac-cis-6-(2-{2-[1-(5-fluoropyrimidin-2-yl)piperidin-4-yl]cyclopropyl}ethoxy)-2-methylpyrimidine-4-carbonitrile], the concentration for a half-maximal effect (EC50) is below 10 nM.

For the molecule `Cc1nc(C#N)cc(OCC[C@@H]2C[C@@H]2C2CCN(c3ncc(C)c(C)n3)CC2)n1` (racemic) [Ex 44, Rac-cis-6-(2-{2-[1-(4,5-dimethylpyrimidin-2-yl)piperidin-4-yl]cyclopropyl}ethoxy)-2-methylpyrimidine-4-carbonitrile], the EC50 was in the range of 10 to 50 nM.

`Clc1cnc(N2CCC(C3CC3CCOc3ccc(-c4cn[nH]c4)cc3)CC2)nc1` (racemic) [Ex 23, rac cis-5-chloro-2-[4-(2-{2-[4-(1H-pyrazol-4-yl)phenoxy]ethyl}cyclopropyl)piperidin-1-yl]pyrimidine]: the EC50 lay in the range of 50 to 200 nM.

Consider `Cc1nc(C#N)cc(OCC[C@@H]2C[C@@H]2C2CCN(c3ccc(C(F)(F)F)cn3)CC2)n1` (racemic) [Ex 47, Rac-cis-2-methyl-6-[2-(2-{1-[5-(trifluoromethyl)pyridin-2-yl]piperidin-4-yl}cyclopropyl)ethoxy]pyrimidine-4-carbonitrile], for which the EC50 was below 10 nM.

Take `Clc1cnc(N2CCC(C3CC3CCOc3ccc(-c4ncno4)cc3)CC2)nc1` (racemic) [Ex 18, rac cis-5-chloro-2-[4-(2-{2-[4-(1,2,4-oxadiazol-5-yl)phenoxy]ethy]}cyclopropyl)piperidin-1-yl]pyrimidine]: the EC50 fell in the range of 50 to 200 nM.

For `Cc1nnc(-c2ccc(OCCC3CC3C3CCN(c4ncc(Cl)cn4)CC3)cc2F)o1` (single isomer, unassigned) [Ex 83 F, cis-5-chloro-2-[4-(2-{2-[3-fluoro-4-(5-methyl-1,3,4-oxadiazol-2-yl)phenoxy]ethyl}cyclopropyl)piperidin-1-yl]pyrimidine], the EC50 is below 10 nM.

For the molecule `Fc1cc(OC[C@@H]2C[C@H]2CC2CCN(c3ncc(Cl)cn3)CC2)ccc1-c1nnc(C2CC2)o1` (racemic) [Ex 111, rac-trans 5-chloro-2-{4-[(2-{[4-(5-cyclopropyl-1,3,4-oxadiazol-2-yl)-3-fluorophenoxy]methyl}cyclopropyl)methyl]piperidin-1-yl}pyrimidine], the EC50 was 10 to 50 nM.

In the case of `N#Cc1ccc(OC[C@@H]2C[C@H]2CC2CCN(c3ncc(Cl)cn3)CC2)cc1F` [Ex 105, 4-[((1R,2R)-2-{[1-(5-chloropyrimidin-2-yl)piperidin-4-yl]methyl}cyclopropyl)methoxy]-2-fluorobenzonitrile], the EC50 is above 200 nM.

In the case of `Cc1cnc(N2CCC([C@@H]3C[C@@H]3CCOc3ccc(-c4nnc(C)o4)c(F)c3)CC2)nc1` (racemic) [Ex 84, rac-cis-2-[4-(2-{2-[3-fluoro-4-(5-methyl-1,3,4-oxadiazol-2-yl)phenoxy]ethyl}cyclopropyl)piperidin-1-yl]-5-methylpyrimidine], the EC50 was below 10 nM.

Turning to `Cc1nnc(-c2ccc(OCC[C@H]3C[C@H]3C3CCN(c4ccc(C(F)(F)F)cn4)CC3)cc2F)o1` (racemic) [Ex 89, Rac-cis-2-[4-(2-{2-[3-fluoro-4-(5-methyl-1,3,4-oxadiazol-2-yl)phenoxy]ethyl}cyclopropyl)piperidin-1-yl]-5-(trifluoromethyl)pyridinium trifluoroacetate], the EC50 was below 10 nM.

`Clc1cnc(N2CCC(C3CC3CCOc3ccc(-n4cccn4)cc3)CC2)nc1` (racemic) [Ex 24, rac cis-5-chloro-2-[4-(2-{2-[4-(1H-pyrazol-1-yl)phenoxy]ethyl}cyclopropyl)piperidin-1-yl]pyrimidine]: the EC50 fell in the range of 50 to 200 nM.

In the case of `Cc1nc(C#N)cc(OCC[C@@H]2C[C@@H]2C2CCN(c3ncc(F)c(C)n3)CC2)n1` (racemic) [Ex 46, Rac-cis-6-(2-{2-[1-(5-fluoro-4-methylpyrimidin-2-yl)piperidin-4-yl]cyclopropyl}ethoxy)-2-methylpyrimidine-4-carbonitrile], the EC50 was below 10 nM.
